Here are results for four compounds from patent US11505521B2 (Biothea Pharma, Inc., priority 2018, dated 2022).

The procedure of series [1]: The stability of the pharmaceutical compositions of Example 3 were tested. The stability studies were conducted on packaged epinephrine salts at 25° C./RH 60% and 40° C./RH 75% conditions, as well as samples without packaging and exposed to light (4500 Lux) for one month. The appearance, assay content, and related substances were examined at 5, 7, 14 and 30 days.
The assay content was tested using Sartorius balances (Model SQP), an INESA pH meter (Model PHS-3E), a Thermo HPLC (UltiMate 3000 System, UV Wavelength: 205 nm), and Phenomenex Luna columns (5 μm C18 (2), 4.6×250 mm). The column temperature was 40° C., and the autosampler temperature was room temperature. The injection volume was 5 μL.
(§1) Mobile Phase A was prepared by weighing 4.0 g tetramethylammonium bisulfate (MERYER, Batch No. 77957139) and 1.1 sodium 1-heptasulfonate (Admas-beta, Batch No. P1343755), and transferring the materials to a flask. 2 mL of 0.1 mol/L EDTA solution (Brand: Sinopharm Chemical Reagent Co., Ltd., Batch No. 20150410) was added to the flask and the volume was adjusted to 950 mL using water. The solution was mixed and adjusted to a pH of 3.5 with 0.1N sodium hydroxide solution (Brand: Enox, Batch No. 20161201). Mobile Phase B was prepared using methanol. The isocratic elution was used in a proportion of A/B of 85/15. The run time was 10 minutes.
The assay content was analyzed by dissolving 20 mg of each sample to be examined in 50 mL of Mobile Phase A (0.4 mg/mL) as assay test solution. The sample was used and tested right after it was ready and was protected from light.
The purity was tested using Sartorius balances (Model SQP), an INESA pH meter (Model PHS-3E), a Thermo HPLC (UltiMate 3000 System, UV Wavelength: 205 nm), and PhenomenexSynergi columns (4 μm Polar-RP 80 A 250×4.6 mm). The column temperature was 30° C., and the autosampler temperature was room temperature. The injection volume was 5 μL.
Mobile Phase A was prepared by weighing 1.136 g of potassium dihydrogen orthophosphate (Brand: CNW, Batch No. A1040040) and 1.74 g of dipotassium hydrogen orthophosphate (Brand: Ourchem, Batch No. 20160219) and transferring into 1000 mL of water. The pH was adjusted to 3.0±0.05 with orthophosphoric acid (Brand: Ourchem, Batch No. 4112K060). The solution was filtered through a 0.45 μm membrane and degassed. Mobile Phase B was prepared using methanol. The run time was 50 minutes.
The purity was analyzed by dissolving 10 mg of each sample to be examined in 25 mL of Mobile Phase A (0.4 mg/mL) as purity and related substance test solution. The sample was used and tested right after it was ready and was protected from light.

The conditions of series [2]: sublingual tablet of Example 3, 10 mg epinephrine base, receptor pH 7.4, 37° C. The procedure: The in-vitro permeability of the pharmaceutical compositions of Example 3 were tested. The tests were conducted using drug transdermal diffusion test instruments (Brand Huanghai, Model No. RJY-6B), Sartorius balances (Model SQP), an INESA pH meter (Model PHS-3E), a Thermo HPLC (UltiMate 3000 System, UV Wavelength: 205 nm), and Phenomenex Luna columns (5 μm C18 (2), 4.6×250 mm). The column temperature was 40° C. and the autosampler temperature was room temperature. The injection volume was 5 μL.
as §1
The in vitro diffusion of epinephrine salts were evaluated using Franz cells with an OD of 20 mm and reservoir volume of 7 mL. Dialysis membranes (Spectra/Por® dialysis membranes with 1,000 Da MWCO) were used to simulate sublingual mucous membrane in the vitro permeability tests. The assay content of the active components was detected in receiving pools. A receptor chamber with a magnetic stirrer was filled with phosphate buffer solution (pH 7.4) as the diffusion medium. The water bath was set at 37° C., and water was circulated in the Franz cells.
Each tablet was placed at the center of the donor chamber on the membrane at T0, and 2 mL of the artificial saliva (Brand: Biomart, Brand No. GL0305) was added to facilitate tablet disintegration and dissolution. Aliquots of 1 mL were withdrawn from the receptor chamber at 10, 30, 60, 90, and 120 min. The volumes withdrawn were replenished with fresh medium. Samples were transferred to HPLC vials for HPLC analysis.

Series [3] in a line: physchem. The note with it: n-octanol / pH 3.47 buffer. The method, then: (§2) The tests were conducted using Sartorius balances (Model SQP), a Thermo HPLC (UltiMate 3000 System, UV Wavelength: 205 nm), and Phenomenex Luna columns (5 μm C18 (2), 4.6×250 mm). The column temperature was 40° C. and the autosampler temperature was room temperature. The injection volume was 5 μL.
as §1, with “using ethanol.” for “using methanol.”, “was 8” for “was 10”
A hydrogen disodium phosphate solution was prepared by weighing 7.1 g of hydrogen disodium phosphate (Brand: Sinopharm Chemical Reagent Co., Ltd., Batch No. 20150910). A citric acid solution was prepared by weighing 5.25 g of hydrated citric acid (Brand: General-Reagent, Batch No. 5949-29-1) and dissolving it in 1000 mL of water. A pH 3.47 buffer solution was prepared by adjusting the pH of the hydrogen disodium phosphate solution to 3.47 with the citric acid solution. An n-octanol buffer solution was prepared by mixing 100 mL of n-octanol (Brand: Chinasun Specialty Products Co., Ltd., Batch No. 20160601) and 100 mL of the pH 3.47 buffer solution, vibrated for 24 hours, which sat for an hour to separate the n-octanol phase and the pH 3.47 buffer phase.
10 mg of the sample was dissolved in 10 mL of the saturated n-octanol solution and mixed completely. 10 mL of the saturated pH 3.47 buffer solution was added and vortexed at 3000 r/min for 1 hour. 1 mL of solution was pipetted from the n-octanol and pH 3.47 phase after an hour. A standard solution was prepared containing 1 mg/mL of the standard in diluent. An LOQ solution was prepared from about 0.1% of the standard solution. An n-octanol phase solution was diluted with 1 mL of methanol to test. The pH 3.47 phase solution was injected directly. The partition coefficient was calculated using the following formula:
[formula] wherein Co is the equilibrium concentration of solute in oil phase, and Cw is the equilibrium concentration of solute in water phase.

The conditions of series [4]: 20 mg in 20 mL water, 25° C. The procedure: The tests were conducted using Sartorius balances (Model SQP) and a pH meter (Brand: INESA, Model No. PHS-3E). 20 mg of the sample was weighed and transferred into a 20 mL volumetric flask with the remainder of the volume comprising water. The solution was mixed. The pH meter was calibrated with pH 4.0 and pH 6.8 standard buffer solutions at 25° C.

Series [5] in a line: physchem. The method, then:
as §2
as §1, with “using ethanol.” for “using methanol.”, “was 8” for “was 10”
A standard solution was used comprising 10 mg of the standard dissolved in 10 mL of water. The test solution solutions were prepared and water was added at 25±2° C. Every 5 minutes, the solution was sonicated for 30 seconds. The dissolution was observed within 30 minutes to make sure the solution was saturated. The solution was filtered through a 0.45 μm membrane and the solution was diluted to test.

Series [6] is described as follows: physchem. As to conditions: titrated with 0.1 mol/L NaOH. The method, then:
The tests were conducted using Sartorius balances (Model SQP) and a potentiometric titrator (Brand: Methrom, Model No. 905 Titrando). 0.17 g of the sample was weighed and transferred into a 50 mL volumetric flask with the remainder of the volume comprising deonized water. The solution was mixed. The solution was titrated with a 0.1 mol/L NaOH solution using a pH indicator to indicate the end point.

Where [7] appears, read: light 4500 Lux, under air, 5 days.
Where [8] appears, read: light 4500 Lux, under air, 7 days.
The mark [9] stands for this setting: light 4500 Lux, under air, 14 days.
The mark [10] stands for this setting: light 4500 Lux, under air, 30 days.

Where a name gives a salt, the structure may show the parent alone. Read-outs that look alike come from different tables or passages of the source.

Consider `CNC[C@H](O)c1ccc(O)c(O)c1` [epinephrine base, epinephrine], for which the “Related substance (%)” value was 0.13% in series [1] (25° C./60% RH, 0 days); 0.14% in series [1] (25° C./60% RH, 5 days); 0.14% in series [1] (25° C./60% RH, 7 days); 0.12% in series [1] (25° C./60% RH, 14 days); 0.14% in series [1] (25° C./60% RH, 30 days); 0.13% in series [1] (40° C./75% RH, 0 days). Further, the “Related substance (%)” value in series [1] (40° C./75% RH, 5 days) amounted to 0.16%; in series [1] (40° C./75% RH, 7 days), 0.15%; in series [1] (40° C./75% RH, 14 days), 0.17%; in series [1] (40° C./75% RH, 30 days), 0.20%; in series [1] (light 4500 Lux, under air, 0 days), 0.13%; in series [1] (setting [7]) it was 0.15%. In addition, the figures for the “Related substance (%)” value in series [1] (setting [8]), in series [1] (setting [9]) and in series [1] (setting [10]) were 0.18%, 0.18% and 0.21%, respectively. In addition, the “Content (%)” value in series [1] (25° C./60% RH, 5 days) is listed as 100.03%; in series [1] (25° C./60% RH, 7 days), 99.73%; in series [1] (25° C./60% RH, 14 days), 99.84%; in series [1] (25° C./60% RH, 30 days), 99.78%; in series [1] (40° C./75% RH, 7 days), 100.67%; in series [1] (40° C./75% RH, 14 days), 98.97%. For the same compound, the “Content (%)” value in series [1] (40° C./75% RH, 30 days) came out at 100.62%; in series [1] (setting [7]), 100.53%; in series [1] (setting [8]), 99.27%; in series [1] (setting [9]), 99.21%; in series [1] (setting [10]), 98.24%. In addition, in series [2], the “Diffusion content (%) 120 min” value is given as 10.5%.

On to `CNC[C@H](O)c1ccc(O)c(O)c1` [epinephrine hydrochloride], for which the “Diffusion content (%) 120 min” value in series [2] (hydrochloride) was determined as 44.0%.

Consider epinephrine fumarate, for which the LogP in series [3] is given as −3.00. The compound also showed a pH in series [4] of 3.77. Further, in series [5] (water, 25±2° C.), the “Solubility” value is reported as 38.9 mg/mL. In series [2], the “Diffusion content (%) 120 min” value amounted to 54.4%. For the same compound, the pKa in series [6] worked out at 4.28.

In the case of epinephrine hemi sulfate, the pH in series [4] is 7.14. Further, the “Solubility” value in series [5] turned out to be 17.7 mg/mL.
